Source: patent publication US8314140B2, “4-hydroxythiobenzamide derivatives of drugs” (Antibe Therapeutics Inc., priority 2006, dated 2012)
“Also recorded” adds a separate entry of the source. Blank lines part the entries; values can stand above or below the molecule they belong to.

Experiments:
COX-2 = biological target: T1, COX-2 (Rattus norvegicus, UniProt P35355); test: Rat airpouch assay, exudate PGE2 after zymosan; assay type: in vivo; conditions: 60 μmol/kg; versus vehicle; FIG. 15
T1 construct: from tissue; host or cells: rat subcutaneous airpouch exudate, in vivo, zymosan-induced
T1 sequence (P35355 18-604): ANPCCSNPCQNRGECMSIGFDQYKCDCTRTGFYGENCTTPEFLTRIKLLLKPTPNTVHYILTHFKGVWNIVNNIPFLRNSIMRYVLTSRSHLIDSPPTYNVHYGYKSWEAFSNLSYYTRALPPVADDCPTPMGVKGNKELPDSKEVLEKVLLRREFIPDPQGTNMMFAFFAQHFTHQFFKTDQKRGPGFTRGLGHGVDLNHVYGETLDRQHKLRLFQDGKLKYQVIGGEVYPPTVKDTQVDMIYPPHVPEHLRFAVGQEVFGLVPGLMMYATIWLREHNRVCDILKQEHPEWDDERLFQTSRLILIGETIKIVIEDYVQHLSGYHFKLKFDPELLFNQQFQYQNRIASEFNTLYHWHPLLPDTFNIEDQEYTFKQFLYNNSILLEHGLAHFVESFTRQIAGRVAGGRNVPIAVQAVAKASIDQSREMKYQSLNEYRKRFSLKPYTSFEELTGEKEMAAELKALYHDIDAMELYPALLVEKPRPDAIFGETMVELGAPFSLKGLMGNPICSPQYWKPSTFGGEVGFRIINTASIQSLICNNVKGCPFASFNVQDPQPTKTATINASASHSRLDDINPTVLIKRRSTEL
Description: Briefly, a subcutaneous “pouch” is created by repeated injections of air over several days. Once established, inflammation in the pouch can be induced by injection of 1 mL of 1% zymosan. […] Another group of 5 rats was treated with the vehicle, but received an injection of 0.9% sterile saline into the pouch rather than zymosan.
(§1) Each group consisted of 5 rats.

[1] = hypertensive rats, 60 μmol/kg intraperitoneal bolus, 60 minutes; FIG. 18
gastric damage [2] = test: Gastric damage score 3 h after oral dosing; assay type: in vivo, rat; conditions: oral, 3 h; diclofenac 20 mg/kg or equimolar doses (Compound XVII 27.3 mg/kg, TBZ 7.3 mg/kg); FIG. 8
Excerpt: There were 5 rats in each group.
as §1

[3] = H2S generation in buffer and liver homogenate (Example 24); assay type: in vitro ADME; conditions: 1 mM, FIG. 19
Description: Two ml of an assay reaction mixture was introduced in to ice-cold 250 μl of NaOH 0.1 N in a sealed 3-neck reactor. […] Incubations were lead with or without presence of 10% (w/v) liver homogenate and 2 mM pyridoxal 5′-phosphate. A constant stream of nitrogen was passed through the mixture via a gas-inlet capillary. […] Khan et al., 1980). Reactions were initiated by transferring the tube from ice bath to a 37° C. water bath. The stream of nitrogen carried the sulfide acid in the second reactor containing 2 ml of SAOB as described previously. After incubating at 37° C. for 90 minutes, 1 ml of 50% trichloroacetic acid solution was added to mixture to stop the reaction. […] The concentration of sulfide in SAOB solution was measured with a sulfide sensitive electrode as previously described (Ubuka, 2002; Khan et al., 1980).

[4] = tested on: leukocyte adherence to the vascular endothelium; test: Leukocyte adherence after NSAID or derivative, intravital microscopy (Example 21); assay type: in vivo, rat; conditions: comment on Table 2
Excerpt: (§2) Briefly, post-capillary mesenteric venules in anestheitized rats are examined under a light microscope.

gastric ulcers = test: Healing of acetic acid-induced gastric ulcers; assay type: in vivo, rat; conditions: oral twice-daily for 4 days; 30 μmol/kg (naproxen, Compound XX 60 μmol/kg); FIG. 17
Description: Gastric ulcers were induced via serosal application of acetic acid, as described by Elliott et al., A nitric oxide-releasing nonsteroidal anti-inflammatory drug accelerates gastric ulcer healing in rats. […] After 4 days of such treatment, the rats were euthanized and the stomach was excised and photographed. The area (in mm^2) of the ulcer was determined planimetrically by an individual unaware of the treatments given to the rats.

[5] = tested on: carrageenan-induced paw edema; test: Carrageenan hindpaw edema model; assay type: in vivo, rat; conditions: oral 30 min prior to carrageenan; diclofenac 1, 3 or 10 mg/kg; Compound XVII equimolar to diclofenac 3 mg/kg; FIG. 14
Description: Male, Wistar rats weighing 175-200 g were given the test compounds orally 30 min prior to subplantar injection of 100 ul of 1% lambda carrageenan.

gastric damage [6] = test: Incidence of gastric damage at end of the leukocyte adherence experiment
Excerpt: as §2

[7] = patients after usual doses; Dig. Dis. Sci. 1989; 34: 573-578; cited from earlier work
visceral pain perception = test: Rat model of visceral pain perception (colorectal distension, AWR score); assay type: in vivo; conditions: 0.8 mL colorectal distention; glibenclamide 10 mg/kg i.p. 30 min before; FIG. 3
Description: A rat model of visceral pain perception, a pre-clinical model of irritable bowel syndrome, was used in the following example. Rats (male, Wistar, 200-250 g, obtained from Charles River, Monza, Italy), were housed in plastic cages and maintained under controlled conditions with 12-hours light/dark cycle with lights on at 7.00 AM. Tap water and standard laboratory chow were freely available. Before experiments, rats were individually trained by spending 2-3 hours per day in a plexiglass cage for 2-3 days. It allowed them to adjust to a movement-restriction environment. Food was withheld for 12 hours before colorectal distension (CRD) recording were performed. Experiments were performed in awake rats and were conducted in a blind manner in that the observer was not aware of the identity of drug administered to each animal.
In the testing day, rats were sedated with ether inhalation and a 2 cm long latex balloon was inserted intrarectally 2 cm from the anal verge and fixed at the base of the tail. The balloon was connected via a double-barreled cannula to a pressure transducer to continuously monitoring the rectal pressure by a computer (PowerLab PC, A.D. Instruments, Milford, Mass., USA) and to a syringe for inflation/deflation of the balloon. The rats were then housed in a small cage (20×8×8 cm) on an elevated Plexiglas™ platform and allowed to wake up and adapt for 1 hour. After recovery from sedation, animals underwent the CRD procedure and behavioral responses were tested. The night before the experiments, the balloons were inflated and left overnight so the latex stretched and the balloons became compliant.
CRD of 20 seconds, performed every 5 minutes, was applied in increment of 0.4 ml starting from 0.4 ml up to 1.6 ml water. To achieve an accurate measurement of the colonic parameters and perception, the distensions were repeated twice for each intensity and data for each animal were averaged for analysis. Each animal underwent a double set of CRD. Twenty minutes after the first sequence of CRD (0.4 mL-1.6 ml water), drugs were administered intraperitoneally (i.p.) and a second set of CRD was performed. Behavioral responses during the first and the second set of CRD were assessed and compared.
Behavioral response to CRD was assessed by measuring the abdominal withdrawal reflex (AWR) using a semiquantitative score (1).
A rat model of visceral pain perception as described above was used to compare pain perception scores for 5-amino-2-(4-thiocarbamoyl-phenoxycarbonyloxy)-benzoic acid (Compound XXVII) with or without glibenclamide, an inhibitor of ATP-sensitive K^+ (KATP) channels.
Experiments were carried out as described in Example 13, except that groups of 5 rats each were treated with vehicle, trimebutine maleate (10 mg/kg), or with equimolar doses of trimebutine thiocarbamoylbenzoate (Compound III) or thiocarbamolybenzoate alone.

human platelet cAMP = test: Human platelet cAMP concentrations; assay type: cell-based; conditions: 3-100 μM, 10 minutes, IBMX 0.5 mM; versus vehicle; FIG. 21
Description: Platelet-rich plasma (PRP) was prepared as above. Aliquots of 400 μL of PRP were placed in glass tubes which contained IBMX (isobutyl-1-methylxanthine; 0.5 mM), an non-selective phosphodiesterase inhibitor. […] As a positive control, some aliquots of platelets were treated with forskolin (10 μM), a known stimulus of adenylate cyclase. Ten minutes later, the samples of PRP were centrifuged at 9,000 g for 2 min and the supernatant was discarded. The pellet was resuspended in buffer, sonicated for 2 min, then cAMP concentrations were determined using a specific enzyme-linked immunosorbent assay (Cayman Chemical Co., Ann Arbor, Mich., USA). Experiments were repeated 4-6 times for each concentration of each drug.

exudate PGE2 in the pouch (COX-2 activity) (COX-2): significantly suppressed COX-2 activity
SMILES: COc1ccc2cc([C@H](C)C(=O)O)ccc2c1 [naproxen]
increase in systolic blood pressure [1]: substantial increase in systolic blood pressure

melting point: 170 to 172 °C
SMILES: NC(=S)c1ccc(OC(=O)Cc2ccccc2Nc2c(Cl)cccc2Cl)cc1 [Compound XVII, [2-(2,6-dichloro-phenylamino)-phenyl]-acetic acid 4-thiocarbamoyl-phenyl ester]
gastric damage score (gastric damage [2]): no gastric damage; also recorded: significantly less gastric damage than diclofenac | H2S generated in liver homogenate ([3]; 10% (w/v) liver homogenate): greater release of H2S from Compound XVII than from TBZ | H2S generated in buffer ([3]; potassium phosphate buffer pH 7.4): significantly more release of H2S than an equivalent amount of TBZ | number of adherent leukocytes compared to the parent drug alone [4]: significantly reduced the number of adherent leukocytes | gastric ulcer healing (ulcer surface area) (gastric ulcers): significantly greater healing | paw edema (paw volume increase) [5]: reduced paw edema to a greater extent; also recorded: comparable to the effect of diclofenac at a dose of 10 mg/kg | percent incidence of gastric damage compared to the parent drug alone (gastric damage [6]; comment on Table 2): significantly reduced the percent incidence of gastric damage | Percent Incidence of Gastric Damage (gastric damage [6]; intragastric 30 μmol/kg (naproxen and Compound XX 60 μmol/kg), end of experiment): 20%

SMILES: Nc1ccc(O)c(C(=O)O)c1 [mesalamine, reference compound]
concentration in the colonic lumen [7]: up to 5 mM | pain perception score after glibenclamide pretreatment (visceral pain perception): did not affect the pain perception

SMILES: CCC(C)(C)C(=O)O[C@H]1C[C@@H](C)C=C2C=C[C@H](C)[C@H](CC[C@H]3C[C@H](OC(=O)CCC(=O)Oc4ccc(C(N)=S)cc4)CC(=O)O3)[C@H]21 [Compound I, Succinic acid 2-{2-[8-(2,2-dimethyl-butyryloxy)-2,6-dimethyl-1,2,6,7,8,8a-hexahydro-naphthalen-1-yl]-ethyl}-6-oxo-tetrahydro-pyran-4-yl ester 4-thiocarbamoyl-phenyl ester]
platelet cAMP (human platelet cAMP): significant increase in platelet cAMP at concentrations of 10, 30 and 100 μM
